# Data published in ChEMBL document CHEMBL4138123, “Design, synthesis and biological evaluation of novel pyrazolochalcones as potential modulators of PI3K/Akt/mTOR pathway and inducers of apoptosis in breast cancer cells” (Eur J Med Chem, 2017).
# Legend:
# MOLT-4 = assay: Cytotoxicity against human MOLT4 cells assessed as cell growth at 0.1 uM after 48 hrs by sulforhodamine B assay relative to control; assay type: functional; settings: MOLT-4, 48 h, read-out: Activity
# UACC-257 [1] = assay: Cytotoxicity against human UACC257 cells assessed as cell growth at 100 uM after 48 hrs by sulforhodamine B assay relative to control; assay type: functional; settings: UACC-257, 48 h, read-out: Activity
# COLO 205 = assay: Cytotoxicity against human COLO205 cells assessed as cell growth at 1 uM after 48 hrs by sulforhodamine B assay relative to control; assay type: functional; settings: COLO 205, 48 h, read-out: Activity
# U-251 = assay: Cytotoxicity against human U251 cells assessed as cell growth at 1 uM after 48 hrs by sulforhodamine B assay relative to control; assay type: functional; settings: U-251, 48 h, read-out: Activity
# BT-549 = assay: Cytotoxicity against human BT549 cells assessed as cell growth at 1 uM after 48 hrs by sulforhodamine B assay relative to control; assay type: functional; settings: BT-549, 48 h, read-out: Activity
# SK-MEL-5 [2] = assay: Cytotoxicity against human SK-MEL-5 cells assessed as cell growth at 0.01 uM after 48 hrs by sulforhodamine B assay relative to control; assay type: functional; settings: SK-MEL-5, 48 h, read-out: Activity
# OVCAR-3 = assay: Cytotoxicity against human OVCAR3 cells assessed as cell growth at 0.1 uM after 48 hrs by sulforhodamine B assay relative to control; assay type: functional; settings: OVCAR-3, 48 h, read-out: Activity
# HCT-116 = assay: Cytotoxicity against human HCT116 cells assessed as cell growth at 0.1 uM after 48 hrs by sulforhodamine B assay relative to control; assay type: functional; settings: HCT-116, 48 h, read-out: Activity
# NCI-H23 = assay: Cytotoxicity against human NCI-H23 cells assessed as cell growth at 100 uM after 48 hrs by sulforhodamine B assay relative to control; assay type: functional; settings: NCI-H23, 48 h, read-out: Activity
# SF-539 = assay: Cytotoxicity against human SF539 cells assessed as cell growth at 100 uM after 48 hrs by sulforhodamine B assay relative to control; assay type: functional; settings: SF-539, 48 h, read-out: Activity
# NCI-H322M = assay: Cytotoxicity against human NCI-H322M cells assessed as cell growth at 10 uM after 48 hrs by sulforhodamine B assay relative to control; assay type: functional; settings: read-out: Activity
# Malme-3M = assay: Cytotoxicity against human MALME-3M cells assessed as growth inhibition after 48 hrs by sulforhodamine B assay; assay type: functional
# UACC-257 [3] = assay: Cytotoxicity against human UACC257 cells assessed as cell growth at 10 uM after 48 hrs by sulforhodamine B assay relative to control; assay type: functional; settings: UACC-257, 48 h, read-out: Activity
# T47D = assay: Cytotoxicity against human T47D cells assessed as cell growth at 1 uM after 48 hrs by sulforhodamine B assay relative to control; assay type: functional; settings: read-out: Activity
# HOP-62 = assay: Cytotoxicity against human HOP62 cells assessed as cell growth at 1 uM after 48 hrs by sulforhodamine B assay relative to control; assay type: functional; settings: HOP-62, 48 h, read-out: Activity
# TK-10 = assay: Cytotoxicity against human TK10 cells assessed as cell growth at 100 uM after 48 hrs by sulforhodamine B assay relative to control; assay type: functional; settings: TK-10, 48 h, read-out: Activity
# ACHN [4] = assay: Cytotoxicity against human ACHN cells assessed as cell growth at 1 uM after 48 hrs by sulforhodamine B assay relative to control; assay type: functional; settings: read-out: Activity
# HCC 2998 [5] = assay: Cytotoxicity against human HCC2998 cells assessed as cell growth at 0.01 uM after 48 hrs by sulforhodamine B assay relative to control; assay type: functional; settings: HCC 2998, 48 h, read-out: Activity
# NCI-H522 = assay: Cytotoxicity against human NCI-H522 cells assessed as growth inhibition after 48 hrs by sulforhodamine B assay; assay type: functional; settings: NCI-H522, 48 h
# MDA-MB-468 = assay: Cytotoxicity against human MDA-MB-468 cells assessed as growth inhibition after 48 hrs by sulforhodamine B assay; assay type: functional; settings: MDA-MB-468, 48 h
# HCT-15 = assay: Cytotoxicity against human HCT15 cells assessed as cell growth at 100 uM after 48 hrs by sulforhodamine B assay relative to control; assay type: functional; settings: HCT-15, 48 h, read-out: Activity
# DU-145 = assay: Cytotoxicity against human DU145 cells assessed as cell growth at 0.01 uM after 48 hrs by sulforhodamine B assay relative to control; assay type: functional; settings: DU-145, 48 h, read-out: Activity
# MCF7 = assay: Cytotoxicity against human MCF7 cells assessed as cell growth at 1 uM after 48 hrs by sulforhodamine B assay relative to control; assay type: functional; settings: MCF7, 48 h, read-out: Activity
# M14 = assay: Cytotoxicity against human M14 cells assessed as cell growth at 0.01 uM after 48 hrs by sulforhodamine B assay relative to control; assay type: functional; settings: M14, 48 h, read-out: Activity
# SF-268 = assay: Cytotoxicity against human SF268 cells assessed as cell growth at 0.1 uM after 48 hrs by sulforhodamine B assay relative to control; assay type: functional; settings: SF-268, 48 h, read-out: Activity
# SK-MEL-5 [6] = assay: Cytotoxicity against human SK-MEL-5 cells assessed as cell growth at 100 uM after 48 hrs by sulforhodamine B assay relative to control; assay type: functional; settings: SK-MEL-5, 48 h, read-out: Activity
# MDA-MB-231 [7] = assay: Cytotoxicity against human MDA-MB-231 cells assessed as growth inhibition after 48 hrs by MTT assay; assay type: functional, cell-based; settings: MDA-MB-231, 48 h
# OVCAR-8 = assay: Cytotoxicity against human OVCAR8 cells assessed as growth inhibition after 48 hrs by sulforhodamine B assay; assay type: functional; settings: OVCAR-8, 48 h
# SN12C = assay: Cytotoxicity against human SN12C cells assessed as cell growth at 100 uM after 48 hrs by sulforhodamine B assay relative to control; assay type: functional; settings: read-out: Activity
# ACHN [8] = assay: Cytotoxicity against human ACHN cells assessed as growth inhibition after 48 hrs by sulforhodamine B assay; assay type: functional
# UO-31 = assay: Cytotoxicity against human UO31 cells assessed as cell growth at 0.01 uM after 48 hrs by sulforhodamine B assay relative to control; assay type: functional; settings: UO-31, 48 h, read-out: Activity
# K562 = assay: Cytotoxicity against human K562 cells assessed as cell growth at 1 uM after 48 hrs by sulforhodamine B assay relative to control; assay type: functional; settings: K562, 48 h, read-out: Activity
# 786-0 = assay: Cytotoxicity against human 786-0 cells assessed as cell growth at 10 uM after 48 hrs by sulforhodamine B assay relative to control; assay type: functional; settings: 786-0, 48 h, read-out: Activity
# HCC 2998 [9] = assay: Cytotoxicity against human HCC2998 cells assessed as cell growth at 100 uM after 48 hrs by sulforhodamine B assay relative to control; assay type: functional; settings: HCC 2998, 48 h, read-out: Activity
# MDA-MB-231 [10] = assay: Cytotoxicity against human MDA-MB-231 cells assessed as cell growth at 1 uM after 48 hrs by sulforhodamine B assay relative to control; assay type: functional; settings: MDA-MB-231, 48 h, read-out: Activity
smiles,measurement,setting,value
COc1ccc(C(=O)/C=C/c2cc(-c3cc(OC)c(OC)c(OC)c3)n[nH]2)cc1OC,growth at 0.1 µM,MOLT-4,98%
same,growth at 100 µM,UACC-257 [1],-97%
same,growth at 1 µM,COLO 205,95%
same,growth at 1 µM,U-251,65%
same,growth at 1 µM,BT-549,76%
same,growth at 0.01 µM,SK-MEL-5 [2],97%
same,growth at 0.1 µM,OVCAR-3,100%
same,growth at 0.1 µM,HCT-116,100%
same,growth at 100 µM,NCI-H23,-75%
same,growth at 100 µM,SF-539,-96%
same,growth at 10 µM,NCI-H322M,-96%
same,LC50,Malme-3M,6790 nM
same,TGI,Malme-3M,3680 nM
same,growth at 10 µM,UACC-257 [3],-98%
same,growth at 1 µM,T47D,75%
same,growth at 1 µM,HOP-62,77%
same,growth at 100 µM,TK-10,-99%
same,growth at 1 µM,ACHN [4],91%
same,growth at 0.01 µM,HCC 2998 [5],93%
same,LC50,NCI-H522,825 nM
same,TGI,NCI-H522,390 nM
same,GI50,MDA-MB-468,750 nM
same,LC50,MDA-MB-468,5210 nM
same,TGI,MDA-MB-468,2180 nM
same,growth at 100 µM,HCT-15,-60%
same,growth at 0.01 µM,DU-145,104%
same,growth at 1 µM,MCF7,31%
same,growth at 0.01 µM,M14,97%
same,growth at 0.1 µM,SF-268,89%
same,growth at 100 µM,SK-MEL-5 [6],-92%
same,IC50,MDA-MB-231 [7],620 nM
same,LC50,OVCAR-8,5640 nM
same,TGI,OVCAR-8,2730 nM
same,growth at 100 µM,SN12C,-86%
same,LC50,ACHN [8],5750 nM
same,TGI,ACHN [8],3090 nM
same,growth at 0.01 µM,UO-31,86%
same,growth at 1 µM,K562,75%
same,growth at 10 µM,786-0,-88%
same,growth at 100 µM,HCC 2998 [9],-86%
same,growth at 1 µM,MDA-MB-231 [10],77%
